Patent US6972288B1, “4-amino-quinazoline and quinoline derivatives having an inhibitory effect on signal transduction mediated by tyrosine kinases” (Boehringer Ingelheim Pharma KG, priority 1999, dated 2005)
pIC50: −log10 of the molar value.

Assays:
human EGF-R = biological target: T1, human EGF-R (Homo sapiens, UniProt P00533); experiment: Inhibition of EGF-dependent proliferation of F/L-HERc cells (Cell Titer 96 AQueous assay); type: cell-based; details: F/L-HERc cells (murine IL-3-dependent line expressing human EGF-R), stimulated with EGF 20 ng/ml, 48 hours at 37° C.
T1 construct: expressed in transfected cells; host or cells: F/L-HERc cells, derived from the murine IL-3-dependent line FDC-P1 ('FDC-PI' [sic]); retroviral vector LXSN, packaging line GP+E86
Description: A cell line of murine origin dependent on interleukin-3 (IL-3) which was genetically modified to express functional human EGF-R was used here. The proliferation of these cells known as F/L-HERc can therefore be stimulated either by murine IL-3 or by EGF (cf. von Rüden, T. et al. in EMBO J. 7, 2749-2756 (1988) and Pierce, J. H. et al. in Science 239. 628-631 (1988)).
The starting material used for the F/L-HERc cells was the cell line FDC-PI, the production of which has been described by Dexter, T. M. et al, in J. Exp. Med. 152, 1036-1047 (1980). alternatively, however, other growth-factor-dependent cells may also be used (cf. for example Pierce, J. H. et al. in Science 239, 628-631 (1988), Shibuya, H. et al. in Cell 70, 57-67 (1992) and alexander, W. S. et al. in EMBO J. 10, 3683-3691 (1991)). For expressing the human EGF-R cDNA (cf. Ullrich, A. et al. in Nature 309, 418-425 (1984)) recombinant retroviruses were used as described by von Rüden, T. et al., EMBO J. 7, 2749-2756 (1988), except that the retroviral vector LXSN (cf. Miller, A. D. et al. in BioTechniques 1, 980-990 (1989)) was used for the expression of the EGF-R cDNA and the line GP+E86 (cf, Markowitz, D, et al. in J. Virol. 62, 1120-1124 (1988)) was used as the packaging cell.
The test was performed as follows: • F/L-HERC cells were cultivated in RPMI/1640 medium (BioWhittaker), supplemented with 10% foetal calf serum (FCS, Boehringer Mannheim). 2 mM glutamine (BioWhittaker), standard antibiotics and 20 ng/ml of human EGF (Promega), at 37° C. and 5% CO2. In order to investigate the inhibitory activity of the compounds according to the invention, 1.5×10^4 cells per well were cultivated in triplicate in 96-well plates in the above medium ([…]), the cell proliferation being stimulated with either EGF (20 ng/ml) or murine IL-3. The IL-3 used was obtained from culture supernatants of the cell line X63/0 mIL-3 (cf. Karasuyama, 4. et al. in Eur. J. Immunol. 18, 97-104 (19881). The compounds according to the invention were dissolved in 100% dimethylsulphoxide (DMSO) and added to the cultures in various dilutions, the maximum DMSO concentration being 1%. The cultures were incubated for 48 hours at 37° C.
In order to determine the inhibitory activity of the compounds according to the invention the relative cell number was measured in O.D. units using the Cell Titer 96™ AQueous Non-Radioactive Cell Proliferation Assay (Promega). The relative cell number was calculated as a percentage of the control (F/LHERc cells without inhibitor) and the concentration of active substance which inhibits the proliferation of the cells by 50% (IC50) was derived therefrom.

T1 sequence (P00533 25-1210): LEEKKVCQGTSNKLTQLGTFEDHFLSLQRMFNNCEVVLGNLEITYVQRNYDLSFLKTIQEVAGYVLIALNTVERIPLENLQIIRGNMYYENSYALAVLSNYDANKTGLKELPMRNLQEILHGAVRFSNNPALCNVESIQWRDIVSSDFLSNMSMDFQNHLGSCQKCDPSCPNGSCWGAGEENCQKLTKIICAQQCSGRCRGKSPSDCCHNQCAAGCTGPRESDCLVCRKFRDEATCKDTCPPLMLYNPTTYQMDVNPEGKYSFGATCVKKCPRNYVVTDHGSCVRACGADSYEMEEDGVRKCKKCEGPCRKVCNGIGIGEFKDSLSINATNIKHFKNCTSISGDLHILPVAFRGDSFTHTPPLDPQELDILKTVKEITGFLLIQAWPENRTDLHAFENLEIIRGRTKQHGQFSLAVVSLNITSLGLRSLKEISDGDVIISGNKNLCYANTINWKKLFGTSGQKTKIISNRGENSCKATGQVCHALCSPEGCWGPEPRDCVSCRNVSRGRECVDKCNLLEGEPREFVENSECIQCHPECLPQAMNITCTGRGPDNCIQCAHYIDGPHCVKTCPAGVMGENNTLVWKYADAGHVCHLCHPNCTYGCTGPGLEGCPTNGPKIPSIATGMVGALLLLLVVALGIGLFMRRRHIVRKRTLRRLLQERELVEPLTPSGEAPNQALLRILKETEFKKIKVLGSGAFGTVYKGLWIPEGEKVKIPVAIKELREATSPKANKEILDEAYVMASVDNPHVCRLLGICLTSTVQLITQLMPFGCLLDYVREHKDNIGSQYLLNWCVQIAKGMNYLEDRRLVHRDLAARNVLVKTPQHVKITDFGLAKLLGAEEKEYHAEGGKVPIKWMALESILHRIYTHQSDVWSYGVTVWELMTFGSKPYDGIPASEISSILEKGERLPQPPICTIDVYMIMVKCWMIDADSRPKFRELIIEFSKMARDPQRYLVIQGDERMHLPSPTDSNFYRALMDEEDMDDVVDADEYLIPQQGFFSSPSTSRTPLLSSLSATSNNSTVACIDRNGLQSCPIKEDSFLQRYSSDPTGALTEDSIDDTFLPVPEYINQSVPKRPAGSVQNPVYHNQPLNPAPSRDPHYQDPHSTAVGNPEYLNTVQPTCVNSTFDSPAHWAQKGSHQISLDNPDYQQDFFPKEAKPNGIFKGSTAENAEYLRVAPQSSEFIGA

pIC50 (human EGF-R) | melting point [°C] | SMILES
8.59 | 80 to 85 | C=CC(=O)Nc1cc2c(Nc3cccc(Br)c3)ncnc2cc1OCCCN1CCN(CC(=O)OCC)CC1 [Example 1, 4-[(3-Bromophenyl)amino]-7-(3-{4-[(ethoxycarbonyl)methyl]-piperazin-1-yl)propyloxy)-6-[(vinylcarbonyl)amino]-quinazoline]
8.28 | 182 to 183 | CCOC(=O)CN(C)CC=CC(=O)Nc1ccc2ncnc(Nc3cccc(Br)c3)c2c1 [Example 2, 4-[(3-Bromophenyl)amino]-6-[(4-{N-[(ethoxycarbonyl)methyl]-N-methylamino}-1-oxo-2-buten-1-yl)-amino]-quinazoline]
7.13 | 90 to 92 | CCOC(=O)CN(CC=CC(=O)Nc1cc2c(Nc3ccc(F)c(Cl)c3)ncnc2cc1OCC1CC1)CCOC(C)=O [Example 11, 4-[(3-chloro-4-fluorophenyl)amino]-6-[(4-(N-[(ethoxycarbonyl)-methyl]-N-[2-(methylcarbonyloxy)ethyl]amino]-1-oxo-2-buten-1-yl)amino]-7-cyclopropylmethoxy-quinazoline]
